Test results as given in ChEMBL document CHEMBL1201862, “PubChem BioAssay data set” (2004).
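Compound exposure: 48 hours, 5 concentrations, 96-well plates. At the GI50, growth is halved.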 The source made the active and inactive calls. Cut-off read from the data, not from the text of the source: active = GI50 up to about 1.1 µM and inactive = higher.

Key:
Assay in all cases: NCI anticancer screen, dose series, 48 h
RXF 393 = system: RXF 393
HT-29 = system: HT-29
NCI-H522 = system: NCI-H522
OVCAR-8 = system: OVCAR-8
PC-3 = system: PC-3
MOLT-4 = system: MOLT-4
UACC-257 = system: UACC-257
SK-MEL-2 = system: SK-MEL-2
Hs-578T = system: Hs-578T
HOP-62 = system: HOP-62
ACHN = system: ACHN
SNB-19 = system: SNB-19
A498 = system: A498
Malme-3M = system: Malme-3M
SN12C = system: SN12C
CCRF-CEM = system: CCRF-CEM
LOX IMVI = system: LOX IMVI
SK-MEL-5 = system: SK-MEL-5
IGROV-1 = system: IGROV-1
UO-31 = system: UO-31

SMILES | GI50 (RXF 393) | GI50 (HT-29) | GI50 (NCI-H522) | GI50 (OVCAR-8) | GI50 (PC-3) | GI50 (MOLT-4) | GI50 (UACC-257) | GI50 (SK-MEL-2) | GI50 (Hs-578T) | GI50 (HOP-62) | GI50 (ACHN) | GI50 (SNB-19) | GI50 (A498) | GI50 (Malme-3M) | GI50 (SN12C) | GI50 (CCRF-CEM) | GI50 (LOX IMVI) | GI50 (SK-MEL-5) | GI50 (IGROV-1) | GI50 (UO-31)
O=C(NNC(=O)c1ccccc1O)c1cccc(Br)c1 | > 100 µM (inactive) | 43 µM (inactive) | 6.25 µM (inactive) | 20.9 µM (inactive) | 44.8 µM (inactive) | 9.23 µM (inactive) | > 77.6 µM (inactive) | > 70 µM (inactive) | > 66.7 µM (inactive) | 56.8 µM (inactive) | 7 µM (inactive) | 73.6 µM (inactive) | > 92.9 µM (inactive) | 37.2 µM (inactive) | 98.9 µM (inactive) | 0.512 µM (active) | 15.2 µM (inactive) | 24.2 µM (inactive) | 18.3 µM (inactive) | 10.7 µM (inactive)
O=c1oc2cc(/N=C/c3ccc4c(c3)OCO4)ccc2c2ccccc12 | 19.2 µM (inactive) | 50.9 µM (inactive) | 56.8 µM (inactive) | 42.5 µM (inactive) | > 100 µM (inactive) | 33.3 µM (inactive) | > 100 µM (inactive) | 92.9 µM (inactive) | > 100 µM (inactive) | 36 µM (inactive) | 58.1 µM (inactive) | 50.2 µM (inactive) | 49.8 µM (inactive) | > 100 µM (inactive) | 51.9 µM (inactive) | 50.4 µM (inactive) | 79.8 µM (inactive) | 76.6 µM (inactive) | 78.3 µM (inactive) | 70 µM (inactive)
CCSc1cc2c(cc1O)CC[C@@H]1[C@@H]2CC[C@]2(C)[C@@H](O)CC[C@@H]12 | 21.5 µM (inactive) | 10.8 µM (inactive) | 6.61 µM (inactive) | 13.3 µM (inactive) | 5.71 µM (inactive) | 4.98 µM (inactive) | 15.1 µM (inactive) | 16.3 µM (inactive) | 5.33 µM (inactive) | 15.7 µM (inactive) | 11.3 µM (inactive) | 12.1 µM (inactive) | 15.6 µM (inactive) | 11.2 µM (inactive) | 17.7 µM (inactive) | 10.1 µM (inactive) | 10.8 µM (inactive) | 10.8 µM (inactive) | 11.7 µM (inactive) | 15.4 µM (inactive)
C/C=C/COc1cc(NC(=S)OC(C)C)ccc1Cl.C/C=C\COc1cc(NC(=S)OC(C)C)ccc1Cl | 14.9 µM (inactive) | 15.3 µM (inactive) | 14.1 µM (inactive) | 18.7 µM (inactive) | 16.3 µM (inactive) | 14.8 µM (inactive) | 18.7 µM (inactive) | 13.6 µM (inactive) | 17.7 µM (inactive) | 20 µM (inactive) | 17.7 µM (inactive) | 20.7 µM (inactive) | 16.2 µM (inactive) | 15 µM (inactive) | 14.2 µM (inactive) | 25.3 µM (inactive) | 19.5 µM (inactive) | 16.2 µM (inactive) | 19.6 µM (inactive) | 12 µM (inactive)
OC(O)(C(F)(F)F)C(F)(F)F | > 100 µM (inactive) | > 100 µM (inactive) | > 100 µM (inactive) | > 100 µM (inactive) | > 100 µM (inactive) | > 100 µM (inactive) | > 100 µM (inactive) | > 100 µM (inactive) | > 100 µM (inactive) | > 100 µM (inactive) | > 100 µM (inactive) | > 100 µM (inactive) | > 100 µM (inactive) | > 100 µM (inactive) | > 100 µM (inactive) | > 100 µM (inactive) | > 100 µM (inactive) | > 100 µM (inactive) | > 100 µM (inactive) | > 100 µM (inactive)
Cc1[nH]c(-c2ccccc2)c(-c2ccc(Cl)cc2)c1C(=O)ONC(=O)c1ccccc1 | 2.12 µM (inactive) | 4.6 µM (inactive) | 2.1 µM (inactive) | 4 µM (inactive) | 4.94 µM (inactive) | 2.69 µM (inactive) | 6.82 µM (inactive) | 2.9 µM (inactive) | 2.26 µM (inactive) | 2.07 µM (inactive) | 1.77 µM (inactive) | 4.86 µM (inactive) | 6.24 µM (inactive) | 10.2 µM (inactive) | 2.25 µM (inactive) | 1.75 µM (inactive) | 1.39 µM (inactive) | 3.41 µM (inactive) | 1.16 µM (inactive) | 0.113 µM (active)
COC(=O)[C@@H]1CN(C(C)=O)C(=O)N1 | > 100 µM (inactive) | > 100 µM (inactive) | > 100 µM (inactive) | > 100 µM (inactive) | > 100 µM (inactive) | > 100 µM (inactive) | > 100 µM (inactive) | > 100 µM (inactive) | > 100 µM (inactive) | > 100 µM (inactive) | > 100 µM (inactive) | > 100 µM (inactive) | > 100 µM (inactive) | > 100 µM (inactive) | > 100 µM (inactive) | > 100 µM (inactive) | > 100 µM (inactive) | > 100 µM (inactive) | > 100 µM (inactive) | > 100 µM (inactive)
